Reference: patent publication US5455233A, “Oligoribonucleoside and oligodeoxyribonucleoside boranophosphates” (University of North Carolina, priority 1992, dated 1995)

How the values were obtained:
[1] = tested on: inflammatory response (carrageenan, hind foot); assay: Anti-inflammatory activity: carrageenan-induced paw inflammation in CF1 male mice; format: in vivo; details: 8 mg/kg intraperitoneally 3 hours and 30 minutes prior to carrageenan; feet excised after 3 hours
Experimental: Anti-Inflammatory Activity CF1 male mice (~25 g) were administered test drugs at 5-40 mg/kg in 0.05% Tween 80-H2 O intraperitoneally 3 hours prior to and 30 minutes prior to the injection of 0.2 ml of 1% carrageenan in 0.9% saline into the plantar surface of the right hind foot. Saline was injected into the left hind foot, which serves as a base line. After 3 hours, both feet were excised at the tibiotarsal (ankle) joint according to standard procedures. See C. Winter et al., Proc. Soc. Expt. Biol Med. 544, 111 (1962); A. Roszkawski et al., J. Pharm. Exp. Ther. 179, 114 (1971). Control mice afforded a 78±3 mg increase in paw weight.

serum triglyceride = assay: Antihyperlipidemic activity: serum triglyceride levels in male CF1 mice; format: in vivo; details: 8 mg/kg intraperitoneally
Experimental: (§1) Compounds to be tested were suspended in 1% aqueous carboxymethylcellulose,homogenized and administered to male CF1 mice (25 g) intraperitoneally for 16d. On days 9 and 16, blood was obtained by tail vein bleeding, and the serum was separated by centrifugation for three minutes. The serum cholesterol levels were determined by a modification of the Liebermann-Burchard reaction in accordance with known techniques. See A. Ness, et al., Clin. Chim. Acta 10, 229 (1964). Serum triglyceride levels were determined with a commercial kit, the Fisher Hycel Triglyceride Test Kit, for a different group of animals bled on day 16.

serum cholesterol = assay: Antihyperlipidemic activity: serum cholesterol levels in male CF1 mice; format: in vivo; details: for Percent Inhibition, Serum Cholesterol, Day 9: Day 9, 8 mg/kg intraperitoneally; for Percent Inhibition, Serum Cholesterol, Day 16: Day 16, 8 mg/kg intraperitoneally
Experimental: as §1

[2] = tested on: KB epidermoid oral nesopharnyx; assay: Cytotoxic activity, KB epidermoid oral nesopharnyx; format: cell-based; details: cell density estimated when controls converged
Experimental: The cytotoxic activity of oligonucleoside boranophosphates of the present invention was tested on the following neoplastic cell lines:
6. KB epidermoid oral nesopharnyx. R. Geran, supra; H. Eagle, Proc. Soc. Expt. Biol. 89, 362 (1955) (grown in EMEM+5% calf serum).
The cytotoxic screens were conducted according to NIH protocols, see E. Huang et al., J. Pharm. Sci. 61, 108 (1972), with 10^4 cells, growth medium, antibiotics and drugs from 0.5 to 100 μg/ml final concentration. For the L1210, Hela-S, amd Tmolt, (i.e. the suspended cells), the incubations were conducted in sterile test tubes in a final volume of 1 ml for 72 hr at 37° C. in a CO2 incubator. The cells on the third day were still in log growth phase. The number of cells/ml are determined using trypan blue exclusion and a hemocytometer. See, e.g., R. Geran, supra. For solid tumors 1×10^4 cells are plated with 1 ml of medium+ antibiotics and the other components of growth. When the controls have converged (≈95%) then the density of the cells is estimated and the ED50 values calculated.

| Substance | Percent Inhibition of the inflammatory response [1] | Percent Inhibition, Serum Triglyceride, Day 16 (serum triglyceride) | Percent Inhibition, Serum Cholesterol, Day 9 (serum cholesterol) | Percent Inhibition, Serum Cholesterol, Day 16 (serum cholesterol) | ED50, KB [2] |
| --- | --- | --- | --- | --- | --- |
| thymidylyl[3'-5']-(3'-acetylthymidylyl) (borane)phosphonate methyl ester [Compound A] | 37% | 12% | 38% | 46% | 3.51 µg/mL |
| thymidylyl[3'-5']thymidylyl[3'-5'](3'-acetylthymidylyl) boranephosphonate dimethyl ester [Compound T] | 40% | 18% | 33% | 32% | 0.61 µg/mL |
